Our source for the AC50, IC50 and GI50 values is patent US20260285853A1, “COMPOUNDS AND METHODS FOR MODULATING SPLICING” (REMIX THERAPEUTICS INC., priority 2023, published 2026).

What all share (assay type): cell-based
Assay [1] has as its system HTT mRNA. Description: Splicing RT-qPCR assay, canonical (CJ) and alternative (AJ) junction mRNA, K562 cells. The note with it: Homo sapiens, K562.3 cells, 24 hours; for AC50: read-out: HTT AJ (AC50, increase in AJ mRNA); for IC50: read-out: HTT CJ (IC50, decrease in CJ mRNA). The method, then:
(§1) Compounds described herein were used to modulate RNA transcript abundance in cells. The expression of a target mRNA was measured by detecting the formation of an exon-exon junction in the canonical transcript (CJ). A compound mediated exon-inclusion event was detected by observing an increase in formation of a new junction with an alternative exon (AJ). Real-time qPCR assays were used to detect these splicing switches and interrogate the potency of various compounds towards different target genes. A high-throughput real time quantitative PCR (RT-qPCR) assay was developed to measure these two isoforms of the mRNA (CJ and AJ) for exemplary genes, such as HTT, SMN2, and MYB, together with a control housekeeping gene, GAPDH or GUSB or PPIA, used for normalization. Briefly, the A673 or K562 cell line was treated with various compounds described herein (e.g., compounds of Formula (I)). After treatment, the levels of the HTT, MYB, or SMN2 mRNA targets were determined from each sample of cell lysate by cDNA synthesis followed by qPCR.
(§2) • Cells-to-CT 1-step kit: ThermoFisher A25602, Cells-to-CT lysis reagent: ThermoFisher 4391851C, TaqMan™ Fast Virus 1-Step Master Mix: ThermoFisher 4444436 • GAPDH: VIC-PL, ThermoFisher 4326317E (Assay: Hs99999905_m1)—used for K562/suspension cell lines • GUSB: VIC-PL, ThermoFisher 4326320E (Assay: Hs99999908_m1)—used for K562/suspension cell lines • PPIA: VIC-PL, ThermoFisher 4326316E (Assay: Hs99999904_m1)—used for A673/adherent cell lines
(§3) The K562 cell line was cultured in IMDM with 10% FBS. For K562, cells were diluted with full growth media and plated in either a 96-well plate (50,000 cells in 50 uL media per well) or a 384-well plate (8,000-40,000 cells in 45 uL media per well). An 11-point 3-fold serial dilution of the compounds were made in DMSO then diluted in media in an intermediate plate. Compound was transferred from the intermediate plate to the cell plate with the top dose at a final concentration of 10 uM in the well. Final DMSO concentration was kept at or below 0.25%. Final volume was 100 uL for 96-well plate and 50 uL for 384-well plate. The cell plate was then placed in an incubator at 37° C. with 5% CO2 for 24 hours.
(§4) The cells were then gently washed with 50 uL-100 uL cold PBS before proceeding to addition of lysis buffer. 30 uL-50 uL of room temperature lysis buffer with DNAse I (and optionally RNAsin) was added to each well. Cells were shaken/mixed thoroughly at room temperature for 5-10 minutes for lysis to take place and then 3 uL-5 uL of room temperature stop solution was added and wells were shaken/mixed again. After 2-5 minutes, the cell lysate plate was transferred to ice for RT-qPCR reaction setup. The lysates could also be frozen at −80° C. for later use.
(§5) In some cases, a direct lysis buffer was used. An appropriate volume of 3× lysis buffer (10 mM Tris, 150 mM NaCl, 1.5%-2.5% Igepal and 0.1-1 U/uL RNAsin, pH 7.4) was directly added to either K562 or A673 cells in media and mixed by pipetting 3 times. The plates were then incubated at room temperature with shaking/rocking for 20-50 minutes to allow for lysis to take place. After this time, the cell lysate plate was transferred to ice to set up for the RT-qPCR reactions. The lysates could also be frozen at −80° C. for later use.
(§6) To set up 10 uL RT-qPCR reactions, cell lysates were transferred to 384-well qPCR plates containing the master mix according to the table below. The plates were sealed, gently vortexed, and spun down before the run. The volumes were adjusted accordingly in some instances where the reaction was carried in 20 uL. The table below summarizes the components of the RT-qPCR reactions:
(§7) The RT-qPCR reaction was performed using a QuantStudio (ThermoFisher) under the following fast cycling conditions. All samples and standards were analyzed at least in duplicate. In some instances, bulk room temperature (RT) step of 5-10 minutes was completed for all plates before proceeding with qPCR. […]
Background: In qPCR the cycle at which signal appears reflects the starting amount.

The subject of assay [2] is MYB mRNA. Described as above. The note with it: Homo sapiens, K562.3 cells, 24 hours; for AC50: read-out: MYB AJ (AC50, increase in AJ mRNA); for IC50: read-out: MYB CJ (IC50, decrease in CJ mRNA). Here is the method:
as §1, §2, §3, §4, §5, §6, §7

Assay [3] concerns SH-SY5Y (human neuroblastoma) cells. Description: Cell viability, Cell Titer Glo 2.0 assay. The note with it: read-out: Viability SHSY5Y.3 GI50. An outline of the steps:
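Toxicity screen in SH-SY5Y cells. Compounds were serially diluted in DMSO and then in medium, giving 0.1% DMSO final. Viability was read with CellTiter-Glo 2.0 after 72 h at 37 °C, 5% CO2, against medium-only blank wells.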

Assay [4] deals with HTT mRNA. Nature of the assay: Gene panel canonical junction qPCR assay, decrease in CJ mRNA, Table 3. The note with it: decrease in canonical junction (CJ) mRNA, gene panel qPCR, Table 3. An outline of the steps:
(§8)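 A673 (DMEM, 10% FBS, 15,000 cells/well) or K562 (IMDM, 10% FBS) cells treated 24 h at 37 °C with 11-point 3-fold dilutions, top 10 uM, DMSO ≤0.25%. Canonical exon-exon junction mRNA measured by RT-qPCR, normalized to GAPDH, GUSB or PPIA and DMSO (ΔΔCt); IC50 from 4-parameter logistic fit.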

Assay [5] deals with MYB mRNA. Described as above. As to conditions: decrease in canonical junction (CJ) mRNA, gene panel qPCR, Table 3. In a few lines: as §8
Assay [6] has as its system SMN2 mRNA. The description is as above. As to conditions: decrease in canonical junction (CJ) mRNA, gene panel qPCR, Table 3. In a few lines: as §8

Structures can show the parent of a compound that is named as a salt. Some results are limits rather than exact numbers.

Broadly, the AC50 is the concentration giving half of the maximal activity seen. Usually IC50 stands for the point on the concentration scale where inhibition reaches its midpoint. Usually GI50 stands for the concentration giving 50% growth inhibition. As for `Cc1cn2cc(NC(=O)c3ccc(N4CC[C@@H]5CNCC[C@@H]54)c4cn(C)nc34)cc(F)c2n1` (stereo in doubt) [Compound 101, N-(8-fluoro-2-methyl-imidazo[1,2-a]-pyridin-6-yl)-2-methyl-4-(octahydro-pyrrolo[3,2-c]-pyridin-1-yl)indazole-7-carboxamide hydrochloride], the results for the AC50 in assay [1] and in assay [2] were 1000 to 10000 nM and 100 to 1000 nM, respectively. Besides, the IC50 is 1000 to 10000 nM in assay [1]; 100 to 1000 nM in assay [2]; 1000 to 10000 nM in assay [4]; 100 to 1000 nM in assay [5]; less than 100 nM in assay [6]. Moreover, the 50% growth inhibitory concentration (GI50) in assay [3] lay within 1000 to 10000 nM.
`Cc1cn2cc(NC(=O)c3ccc(N4CCC5NCCCC54)c4cn(C)nc34)cc(F)c2n1` (centres unmarked) [Compound 100, N-(8-fluoro-2-methylimidazo[1,2-a]pyridin-6-yl)-2-methyl-4-(octahydropyrrolo[3,2-b]pyridin-1-yl)indazole-7-carboxamide]: the results for the half-maximal activity concentration (AC50) in assay [1] and in assay [2] were 1000 to 10000 nM and 100 to 1000 nM, respectively. The IC50 in assay [1] was 1000 to 10000 nM; in assay [2], 100 to 1000 nM; in assay [4], 1000 to 10000 nM; in assay [5], 100 to 1000 nM; in assay [6], less than 100 nM. In addition, the 50% growth inhibitory concentration (GI50) in assay [3] was 1000 to 10000 nM.
For the molecule `CN[C@@H]1CN(c2ccc(C(=O)Nc3cc(F)c4nc(C)cn4c3)c3nn(C)cc23)C[C@H]1C` [Compound 107, N-(8-fluoro-2-methyl-imidazo[1,2-a]pyridin-6-yl)-2-methyl-4-[(3R,4S)-3-methyl-4-(methylamino)pyrrolidin-1-yl]indazole-7-carboxamide], the AC50 in assay [1] was more than 10000 nM; in assay [2] it was 100 to 1000 nM. The IC50 was 1000 to 10000 nM in assay [1]; 100 to 1000 nM in assay [2]; 1000 to 10000 nM in assay [4]; 100 to 1000 nM in assay [5]; less than 100 nM in assay [6]. Also, in assay [3], the concentration for 50% growth inhibition (GI50) was in the range of 1000 to 10000 nM.
Consider `CN[C@@H]1CN(c2ccc(C(=O)Nc3cc(F)c4nc(C)cn4c3)c3nn(C)cc23)C[C@@H]1C` [Compound 108, N-(8-fluoro-2-methyl-imidazo[1,2-a]pyridin-6-yl)-2-methyl-4-[(3S,4S)-3-methyl-4-(methylamino)-pyrrolidin-1-yl]indazole-7-carboxamide], for which the results for the AC50 in assay [1] and in assay [2] were more than 10000 nM and 100 to 1000 nM, respectively. In addition, the half-maximal inhibitory concentration (IC50) in assay [1] is 1000 to 10000 nM; in assay [2] it was 100 to 1000 nM; in assay [4] it was 1000 to 10000 nM; in assay [5], 100 to 1000 nM; in assay [6], less than 100 nM. Moreover, the concentration for 50% growth inhibition (GI50) in assay [3] lay in the range of 1000 to 10000 nM.
In the case of `COCCN[C@H]1CCN(c2ccc(C(=O)Nc3cc(F)c4nc(C)cn4c3)c3nn(C)cc23)C1` [Compound 112, N-(8-fluoro-2-methyl-imidazo[1,2-a]pyridin-6-yl)-4-[(3S)-3-(2-methoxyethylamino)pyrrolidin-1-yl]-2-methyl-indazole-7-carboxamide], the AC50 was more than 10000 nM in assay [1] and less than 100 nM in assay [2]. Also, the IC50 in assay [1] was 1000 to 10000 nM; in assay [2], 100 to 1000 nM; in assay [4] it was 1000 to 10000 nM; in assay [5], 100 to 1000 nM; in assay [6] it was less than 100 nM. The concentration for 50% growth inhibition (GI50) in assay [3] was in the range of 1000 to 10000 nM.
For `Cc1cn2cc(NC(=O)c3ccc(N4CC[C@H](NCCO)C4)c4cn(C)nc34)cc(F)c2n1` [Compound 115, N-(8-fluoro-2-methylimidazo-[1,2-a]-pyridin-6-yl)-4-[(3S)-3-(2-hydroxy-ethylamino)-pyrrolidin-1-yl]-2-methylindazole-7-carboxamide], the figures for the AC50 in assay [1] and in assay [2] were 1000 to 10000 nM and 100 to 1000 nM, respectively. The IC50 is 1000 to 10000 nM in assay [1]; 100 to 1000 nM in assay [2]; 1000 to 10000 nM in assay [4]; 100 to 1000 nM in assay [5]; less than 100 nM in assay [6]. In addition, in assay [3], the GI50 lay within 1000 to 10000 nM.
`C#CCN[C@@H]1CCN(c2ccc(C(=O)Nc3cc(F)c4nc(C)cn4c3)c3nn(C)cc23)C1` [Compound 122]: the AC50 in assay [1] was in the range of 1000 to 10000 nM; in assay [2], 100 to 1000 nM. The IC50 in assay [1] was 1000 to 10000 nM; in assay [2], 100 to 1000 nM; in assay [4] it was 1000 to 10000 nM; in assay [5], 100 to 1000 nM; in assay [6], less than 100 nM. The GI50 in assay [3] was 1000 to 10000 nM.
In the case of `Cc1cn2cc(NC(=O)c3ccc(N4CC[C@@H](NCC56CC(CO5)C6)C4)c4cn(C)nc34)cc(F)c2n1` [Compound 124, N-(8-fluoro-2-methyl-imidazo[1,2-a]pyridin-6-yl)-2-methyl-4-[(3R)-3-(2-oxabicyclo[2.1.1]hexan-1-ylmethylamino)pyrrolidin-1-yl]indazole-7-carboxamide], the results for the concentration at half-maximal activity (AC50) in assay [1] and in assay [2] were more than 10000 nM and 100 to 1000 nM, respectively. Besides, the IC50 was more than 10000 nM in assay [1]; 1000 to 10000 nM in assay [2]; more than 10000 nM in assay [4]; 1000 to 10000 nM in assay [5]; less than 100 nM in assay [6]. For the same molecule, in assay [3], the GI50 fell in the range of 1000 to 10000 nM.
On to `Cc1cn2cc(NC(=O)c3ccc(N4CC[C@H](NCC56CC(CO5)C6)C4)c4cn(C)nc34)cc(F)c2n1` [Compound 125, N-(8-fluoro-2-methyl-imidazo[1,2-a]-pyridin-6-yl)-2-methyl-4-[(3R)-3-(2-oxabicyclo-[2.1.1]hexan-1-ylmethyl-amino)pyrrolidin-1-yl][6.1]-indazole-7-carboxamide], for which the concentration at half-maximal activity (AC50) in assay [1] is more than 10000 nM; in assay [2], 100 to 1000 nM. In addition, the IC50 in assay [1] was more than 10000 nM; in assay [2], 100 to 1000 nM; in assay [4], more than 10000 nM; in assay [5], 100 to 1000 nM; in assay [6] it was less than 100 nM. Besides, the GI50 in assay [3] fell in the range of 100 to 1000 nM.
Regarding `CN[C@H]1C[C@H](C)N(c2ccc(C(=O)Nc3cc(F)c4nc(C)cn4c3)c3nn(C)cc23)C1` [Compound 127, N-(8-fluoro-2-methyl-imidazo[1,2-a]pyridin-6-yl)-2-methyl-4-[(2S,4S)-2-methyl-4-(methylamino)-pyrrolidin-1-yl]indazole-7-carboxamide], the concentration at half-maximal activity (AC50) in assay [1] and in assay [2] was more than 10000 nM throughout. Moreover, the IC50 in assay [1] is 1000 to 10000 nM; in assay [2] it was more than 10000 nM; in assay [4] it was 1000 to 10000 nM; in assay [5], more than 10000 nM; in assay [6] it was 100 to 1000 nM. Further, the 50% growth inhibitory concentration (GI50) in assay [3] was in the range of 1000 to 10000 nM.
